This is an account of results in ChEMBL document CHEMBL3860071, “Discovery and structure-activity relationship studies of quinolinone derivatives as potent IL-2 suppressive agents” (Bioorg Med Chem, 2016).

Data set [1] in a line: Cytotoxicity against human Jurkat T cells assessed as cell survival at 10 uM measured after 3 days by MTT assay. Type of data set: toxicity, cell-based. The conditions noted are these: read-out: Survival.
Data set [2] deals with Jurkat. The experiment in a line: Immunosuppressive activity in human PMA/ionomycin stimulated Jurkat T cells assessed as suppression of IL2 production pretreated with cells followed by PMA/ionomycin stimulation measured after 13 hrs by ELISA. Type of data set: functional, cell-based.
For data set [3], the system named is Jurkat. The experiment in a line: Immunosuppressive activity in human PMA/ionomycin stimulated Jurkat T cells assessed as suppression of IL2 production at 1 uM pretreated with cells followed by PMA/ionomycin stimulation measured after 13 hrs by ELISA. Type of data set: functional. A general note: An ELISA detects its analyte on a solid surface through an enzyme-linked reagent.

Molecules are shown by their SMILES.

The IC50 is the point on the concentration scale where inhibition reaches its midpoint. In the case of `O=C(NCCc1ccccc1)c1cc2c([N+](=O)[O-])cccc2n(Cc2ccc(Br)cc2)c1=O`, the viability at 72 h, 10 µM in data set [1] came out at 64%. Also, in the data set on Jurkat [2], the IC50 is 780 nM.
For orientation: inhibition means the drop in the measured response relative to a control, in per cent. On to `COc1ccc(Cn2c(=O)c(C(=O)NCCc3ccc(O)cc3)cc3c(N)cccc32)cc1`, for which the inhibition at 1 µM in the data set with Jurkat [3] is 20%. Moreover, in data set [1], the viability at 72 h, 10 µM came to 97%.
The matching figures for `COc1ccc(Cn2c(=O)c(C(=O)NCCc3ccc(OC)c(O)c3)cc3c(N)cccc32)cc1`: 37% and 99%.
For the compound `COCCCNC(=O)c1cc2c(N)cccc2n(Cc2ccc(OC)cc2)c1=O`, the viability at 72 h, 10 µM in data set [1] was 97%.
Same read-out and setting: to `COc1ccc(Cn2c(=O)c(C(=O)NCC(C)C)cc3c(N)cccc32)cc1` belongs 99%.
Turning to `C/C=C/C[C@@H](C)[C@@H](O)[C@H]1C(=O)N[C@@H](CC)C(=O)N(C)CC(=O)N(C)[C@@H](CC(C)C)C(=O)N[C@@H](C(C)C)C(=O)N(C)[C@@H](CC(C)C)C(=O)N[C@@H](C)C(=O)N[C@H](C)C(=O)N(C)[C@@H](CC(C)C)C(=O)N(C)[C@@H](CC(C)C)C(=O)N(C)[C@@H](C(C)C)C(=O)N1C` [CYCLOSPORINE], the IC50 in the data set with Jurkat [2] was 11 nM.
With `COc1ccc(Cn2c(=O)c(C(=O)NCCCc3ccccc3)cc3c(N)cccc32)cc1`, in the data set on Jurkat [3], the inhibition at 1 µM was 11%. The viability at 72 h, 10 µM in data set [1] was 97%.
Consider `O=C(NCCc1ccccc1)c1cc2c([N+](=O)[O-])cccc2n(Cc2ccccc2)c1=O`, for which the viability at 72 h, 10 µM in data set [1] was 91%.
On to `COc1ccc(Cn2c(=O)c(C(=O)NCc3ccccc3)cc3c(N)cccc32)cc1`, for which the inhibition at 1 µM with Jurkat [3] stood at 30%. For the same compound, in data set [1], the viability at 72 h, 10 µM was determined as 98%.
As to `CCc1ccc(CCNC(=O)c2cc3c(N)cccc3n(Cc3ccc(OC)cc3)c2=O)cc1`, the viability at 72 h, 10 µM in data set [1] was 97%.
With `COc1ccc(CCNC(=O)c2cc3c(N)cccc3n(Cc3ccc(OC)cc3)c2=O)cc1`, the inhibition at 1 µM in the data set with Jurkat [3] was 25%. The viability at 72 h, 10 µM in data set [1] was 96%.
`COc1ccc(Cn2c(=O)c(C(=O)NCCc3ccccc3)cc3ccc([N+](=O)[O-])cc32)cc1`: the viability at 72 h, 10 µM in data set [1] is 95%.
`COc1ccc(Cn2c(=O)c(C(=O)NCCc3ccccc3)cc3c(N)cccc32)cc1`: the inhibition at 1 µM in the data set with Jurkat [3] was 41%. Further, in data set [1], the viability at 72 h, 10 µM was 98%.
The matching figures for `N#Cc1ccc(Cn2c(=O)c(C(=O)NCCc3ccccc3)cc3c([N+](=O)[O-])cccc32)cc1`: 28% and 95%.
As to `COc1ccc(Cn2c(=O)c(C(=O)NCCc3ccc(C)cc3)cc3c(N)cccc32)cc1`, the viability at 72 h, 10 µM in data set [1] came out at 99%.
Regarding `O=C(NCCc1ccccc1)c1cc2c([N+](=O)[O-])cccc2n(Cc2ccc(Cl)cc2)c1=O`, the inhibition at 1 µM in the data set on Jurkat [3] stood at 39%. In addition, the viability at 72 h, 10 µM in data set [1] was 97%.
On the same counts, the results for `COc1ccc(Cn2c(=O)c(C(=O)NCCc3ccc(Cl)cc3)cc3c(N)cccc32)cc1` are 19% and 96%.
The matching figures for `COc1ccc(Cn2c(=O)c(C(=O)NCCc3ccc(O)c(O)c3)cc3c(N)cccc32)cc1`: 14% and 98%.
The matching figures for `COc1ccc(Cn2c(=O)c(C(=O)NCCc3ccncc3)cc3c(N)cccc32)cc1`: 16% and 93%.
In the case of `COc1ccc(Cn2c(=O)c(C(=O)NCCc3ccccc3)cc3c(Cl)cccc32)cc1`, the inhibition at 1 µM with Jurkat [3] came to 44%. For the same compound, the viability at 72 h, 10 µM in data set [1] came out at 87%.
Consider `COc1ccc(Cn2c(=O)c(C(=O)NCCc3ccc4c(c3)OCO4)cc3c(N)cccc32)cc1`, for which the inhibition at 1 µM in the data set on Jurkat [3] is 31%. In data set [1], the viability at 72 h, 10 µM is 96%.
For `Cc1ccc(Cn2c(=O)c(C(=O)NCCc3ccccc3)cc3c([N+](=O)[O-])cccc32)cc1`, in data set [1], the viability at 72 h, 10 µM was 81%.
Take `COc1ccc(Cn2c(=O)c(C(=O)NCCc3ccc(Br)cc3)cc3c(N)cccc32)cc1`: the inhibition at 1 µM with Jurkat [3] came to 38%. Further, in data set [1], the viability at 72 h, 10 µM is 93%.
The matching figures for `COc1cccc(Cn2c(=O)c(C(=O)NCCc3ccccc3)cc3c([N+](=O)[O-])cccc32)c1`: 16% and 97%.
